Data: US7429596B2, “1H-pyrrolo [2,3-D] pyrimidine derivatives and methods of use thereof” (The Regents of the University of California, priority 2003, dated 2008)
Substitutions are numbered along the chain they refer to. pIC50, pKi: −log10 of the molar value. Values joined by “and” are separate entries in the source; they are usually repeats but may differ in a detail not shown here. Identical values can stand only once. “Also recorded” adds a separate entry of the source. Like-named read-outs stand apart in the source and are kept apart here.

What was measured:
[1] = biological target: T1, carbonyl reductase 1 (CBR1) (Homo sapiens, UniProt P16152); assay: CBR1 inhibition: menadione reduction, NADPH absorbance at 340 nm; assay type: biochemical; parameters: 6-His (N); made in house; host or cells: E. coli
T1 sequence (P16152 1-277): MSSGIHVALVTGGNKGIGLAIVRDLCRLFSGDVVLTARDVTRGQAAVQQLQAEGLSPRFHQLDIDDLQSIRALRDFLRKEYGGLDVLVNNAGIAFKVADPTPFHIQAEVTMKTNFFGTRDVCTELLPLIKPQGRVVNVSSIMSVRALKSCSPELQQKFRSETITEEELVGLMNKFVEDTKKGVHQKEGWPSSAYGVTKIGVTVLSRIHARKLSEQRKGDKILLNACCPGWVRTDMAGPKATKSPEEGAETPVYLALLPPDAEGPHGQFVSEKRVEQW
Description: CBR was expressed in E. coli and purified using glutathione beads; CBR has a naturally occurring. glutathione binding site. An N-terminal 6-His tagged protein was prepared to allow purification by metal affinity. Our CBR assay employs the synthetic substrate Menadione (2-methyl-1,4-naphthoquinone). Reaction progress is monitored by the decrease in NADPH-absorbance at 340 nm. Saturating concentrations of Menadione with variable concentrations of NADPH are employed in order to ascertain KI values.

c-Fyn-wt = c-Fyn-wt (Homo sapiens, UniProt P06241); assay: Inhibition of Src family kinase Fyn; assay type: biochemical
Description: Experiments were performed to determine whether AB129 was capable of inhibiting the Src family kinase, Fyn. […] Such a compound would serve as a test compound for determining the importance of dual inhibition of CBR1 and protein kinases.

[2] = tested on: A549 lung carcinoma cells; assay: A549 cell killing / viability
[3] = tested on: A549 lung carcinoma cells; assay: Cell cycle of A549 cells
i.v. serum half-life = assay type: in vivo; details: iv, read-out: i.v. serum half-life (t1/2)
Source text: The data obtained from these cell culture assays and animal studies can be used in formulating a dosage range that is not toxic for use in human. The dosage of such compounds lies within a range of circulating concentrations that include the ED50 with little or no toxicity. The dosage can vary within this range depending upon the dosage form employed and the route of administration utilized. The exact formulation, route of administration and dosage can be chosen by the individual physician in view of the patient's condition. (See, e.g., Fingl et al., 1975, In: The Pharmacological Basis of Therapeutics, Ch. 1, p. 1). One of the advantages, among others, of using the AB129-type compounds and analogs described herein to treat disease, e.g., lung cancer or colon cancer is their lack of toxicity.

[4] = biological target: T1, carbonyl reductase 1 (CBR1); assay: Production of daunorubicinol from daunorubicin
Source text: To independently confirm the ability of AB129 to inhibit CBR1 in A549 cells, an assay based on the role of CBR1 in attenuating the anti-cancer action of daunorubicin was employed.

[5] = tested on: A549 lung carcinoma cells; details: human, 2 days, 0.4 μM
[6] = biological target: T2, N90V mutant of carbonyl reductase 1 (CBR1) (Homo sapiens, UniProt P16152, N90V); assay: Sensitivity of N90V mutant CBR1 to inhibitor; assay type: biochemical; details: FIG. 30
T2 construct: made in house
T2 sequence (P16152 1-277 N90V): T1 sequence (P16152 1-277) with N90V
Source text: To understand the basis for the potency of AB129 against CBR1, a computer algorithm was used for molecular docking of AB129 to an available crystal structure of porcine CBR1 to produce a model of the bound structure of AB129 (FIG. 24). This modeled co-structure was experimentally validated by site-directed mutagenesis of multiple amino acids in the proposed AB129 binding pocket (including a conserved Asn residue common to all SDR family members—FIGS. 25-27) and identification of AB129 resistant mutants of CBR1 (FIGS. 28-30). This binding model also potentially explains the importance of the hydroxyl moiety attached to the phenyl ring of AB129, as being critical for a H-bonding interaction with an active site Asn.

adenocarcinoma cells = assay: Killing of adenocarcinoma cells in culture; assay type: cell-based
Source text: In order to verify this assumption, the pyrazolopyrimidine RB2 and the analogous pyrrolopyrimidine RB5 were synthesized (FIG. 37). These compounds employ an R^2 isopropyl as opposed to the AB129 t-butyl because the Mitsunobu reaction used for RB5 synthesis is not amenable to t-butyl alkylation.

11β-HSD1 = 11β-HSD1 (Homo sapiens, UniProt P28845); details: Diederich et al. 2000; cited from earlier work
[7] = Table 1, read-out: IC50 anti-hCBR1
[8] = Table 1, read-out: IC50 anti-c-Fyn-wt

Sequence of c-Fyn-wt (P06241 whole entry): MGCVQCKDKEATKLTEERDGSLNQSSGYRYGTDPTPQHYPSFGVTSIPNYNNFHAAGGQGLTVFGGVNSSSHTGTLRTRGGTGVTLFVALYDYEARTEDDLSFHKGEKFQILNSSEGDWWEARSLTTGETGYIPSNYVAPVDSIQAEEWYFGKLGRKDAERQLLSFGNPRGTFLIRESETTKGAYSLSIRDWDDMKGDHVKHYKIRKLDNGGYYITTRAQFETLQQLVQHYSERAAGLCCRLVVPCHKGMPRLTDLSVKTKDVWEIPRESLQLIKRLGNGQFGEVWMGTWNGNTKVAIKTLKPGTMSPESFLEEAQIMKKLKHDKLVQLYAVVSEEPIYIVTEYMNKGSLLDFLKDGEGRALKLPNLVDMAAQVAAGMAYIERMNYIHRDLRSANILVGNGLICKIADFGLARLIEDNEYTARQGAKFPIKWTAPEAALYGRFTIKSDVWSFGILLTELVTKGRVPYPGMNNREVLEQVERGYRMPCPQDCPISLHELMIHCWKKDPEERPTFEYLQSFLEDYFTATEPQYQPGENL
Sequence of 11β-HSD1 (P28845 whole entry): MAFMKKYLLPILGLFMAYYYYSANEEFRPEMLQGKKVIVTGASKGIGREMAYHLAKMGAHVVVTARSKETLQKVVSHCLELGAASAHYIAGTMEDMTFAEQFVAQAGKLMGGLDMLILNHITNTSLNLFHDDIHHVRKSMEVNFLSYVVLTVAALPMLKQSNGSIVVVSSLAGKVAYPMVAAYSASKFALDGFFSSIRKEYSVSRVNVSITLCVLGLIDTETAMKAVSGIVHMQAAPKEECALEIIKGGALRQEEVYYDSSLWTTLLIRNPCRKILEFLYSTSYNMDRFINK

SMILES	pIC50 [1, 7]	pIC50 (c-Fyn-wt; [8])	pIC50 ([1]; read-out: anti-CBR IC50)	also measured
CC(C)(C)n1nc(-c2ccc(F)c(O)c2)c2c(N)ncnc21 [MS01]	6.00	8.52	–	–
CC(C)(C)n1nc(Cc2ccc(O)cc2)c2c(N)ncnc21 [RB03]	< 4.70	~4.70	–	–
CC(C)(C)n1nc(Cc2cccc(O)c2)c2c(N)ncnc21 [RB01]	< 4.70	5.92	–	–
CC(C)(C)n1nc(-c2ccc(N)cc2)c2c(N)ncnc21 [AB061]	< 4.70	7.30	–	cell killing in human lung cancer cell line A549 [2]: mild to severe cell killing
COc1cccc2c1C(=O)c1c(O)c3c(c(O)c1C2=O)C[C@@](O)(C(C)=O)C[C@@H]3O[C@H]1C[C@H](N)[C@H](O)[C@H](C)O1 [daunorubicin, reference compound]	–	–	–	loss of viability of A549 cells ([2]; daunorubicin single agent, 0.8 μM): 15%
CNc1ncnc2c1c(-c1cc(O)cc(C(F)(F)F)c1)cn2C(C)C [SD4, 3-(7-Isopropyl-4-methylamino-7H-pyrrolo[2,3-d]pyrimidin-5-yl)-5-trifluoromethyl-phenol]	–	–	6.38	–
CCOCCn1nc(-c2cccc(O)c2)c2c(N)ncnc21 [MT15]	6.03	6.70	–	–
CCOCCn1nc(-c2ccccc2)c2c(N)ncnc21 [MT13]	< 4.70	5.30	–	–
CC(C)(C)n1nc(-c2cccc(O)c2)c2c(N)ncnc21 [AB129]	6.10	8.10	–	pIC50 ([1]; FIG. 5, read-out: IC50, CBR1 catalyzed reduction of menadione by NADPH): ~5.30; pKi ([1]; NADPH competitive): 6.40 and 6.40 to 6.52; mode of inhibition of CBR1 ([1]; with respect to NADPH): pure NADPH competitive inhibitor; pIC50 (c-Fyn-wt; read-out: anti-Fyn IC50): 8.00; A549 cells in G2/M phase [3]: approximately 12%; cell killing in human lung cancer cell line A549 [2]: mild to severe cell killing; also recorded: most potent A549 cell killing response; half-life (i.v. serum half-life): 2 to 2.5 h; production of cardiotoxic metabolite daunorubicinol from daunorubicin [4]: able to block production; loss of viability of A549 cells [5]: 15%; sensitivity of N90V mutant CBR1 versus wild type CBR1 [6]: less sensitive
CNc1ncnc2c1c(-c1cccc(O)c1)cn2CCC(=O)O [RB11, 3-(5-(3-hydroxyphenyl)-4-(methylamino)-4aH-pyrrolo[2,3-d]pyrimidin-7(7aH)-yl)propanoic acid]	–	–	6.66	–
CC(C)n1cc(-c2cc(O)cc(C(F)(F)F)c2)c2c(Cl)ncnc21 [SD8, 3-(4-Chloro-7-isopropyl-7H-pyrrolo[2,3-d]pyrimidin-5-yl)-5-trifluoromethyl-phenol]	–	–	7.17	–
CC(C)n1cc(-c2cc(O)cc(Br)c2)c2c(Cl)ncnc21 [SD5, 3-bromo-5-(4-chloro-7-isopropyl-7H-pyrrolo[2,3-d]pyrimidin-5-yl)-phenol]	7.55	–	7.57	–
CC(C)n1nc(-c2cccc(O)c2)c2c(N)ncnc21 [RB02]	6.00	7.96	–	CBR inhibition compared with AB129 [1]: comparable to AB129; killing of adenocarcinoma cells in culture (adenocarcinoma cells): kill adenocarcinoma cells in culture
CNc1ncnc2c1c(-c1cc(O)cc(C(C)(C)C)c1)cn2C(C)C [SD3, 3-tert-Butyl-5-(7-isopropyl-4-methylamino-7H-pyrrolo[2,3-d]pyrimidin-5-yl)-phenol]	–	–	5.12	–
CNc1ncnc2c1c(-c1cccc(O)c1)cn2C(C)C [RB06]	6.23	4.15	–	CBR inhibition compared with AB129 [1]: equipotent; fold less potent as an inhibitor of Fyn (c-Fyn-wt; predicted, versus AB129): > 100 fold
CC(C)(C)n1nc(-c2cccc(N)c2)c2c(N)ncnc21 [AB060]	< 4.70	7.30	–	cell killing in human lung cancer cell line A549 [2]: mild to severe cell killing
CNc1ncnc2c1c(-c1cc(O)cc(Br)c1)cn2C(C)C [SD1, 3-bromo-5-(7-isopropyl-4-methylamino-7H-pyrrolo[2,3-d]pyrimidin-5-yl)-phenol]	–	–	6.66	–
CC(C)(C)n1nc(-c2ccccc2)c2c(N)ncnc21 [AB001]	< 4.70	6.96	–	–
CNc1ncnc2c1c(-c1cccc(O)c1)cn2CCC(=O)OC(C)(C)C [RB10, tert-Butyl 3-(5-(3-hydroxyphenyl)-4-(methylamino)-4aH-pyrrolo[2,3-d]pyrimidin-7(7aH)-yl)propanoate]	–	–	5.94	–
CNc1ncnc2c1c(-c1cccc(N)c1)cn2C(C)C [RB07, [5-(3-amino-phenyl)-7-isopropyl-7H-pyrrolo[2,3-d]pyrimidin-4-yl]-methyl-amine]	< 4.70	–	–	–
CNc1ncnc2c1c(-c1cc(C)cc(O)c1)cn2C(C)C [SD2, 3-(7-isopropyl-4-methylamino-7H-pyrrolo[2,3-d]pyrimidin-5-yl)-5-methyl-phenol]	–	–	5.52	–
CC(C)n1cc(-c2cccc(O)c2)c2c(N(Cc3ccccc3)Cc3ccccc3)ncnc21 [RB09, 3-(4-dibenzylamino-7-isopropyl-7H-pyrrolo[2,3-d]pyrimidin-5-yl)-phenol]	< 4.70	–	–	–
CC(C)n1cc(-c2cc(O)cc(C(C)(C)C)c2)c2c(Cl)ncnc21 [SD7, 3-tert-butyl-5-(4-chloro-7-isopropyl-7H-pyrrolo[2,3-d]pyrimidin-5-yl)-phenol]	–	–	6.42	–
CC(C)n1cc(-c2cccc(O)c2)c2c(NCc3ccccc3)ncnc21 [RB08, 3-(4-benzylamino-7-isopropyl-7H-pyrrolo[2,3-d]pyrimidin-5-yl)-phenol]	–	–	5.36	pIC50 (c-Fyn-wt; read-out: anti-Fyn IC50): 4.70
CC(C)n1cc(-c2cccc(O)c2)c2c(N)ncnc21 [RB05, 3-(4-amino-7-isopropyl-7H-pyrrolo[2,3-d]pyrimidin-5-yl)-phenol]	6.12	7.92	–	CBR inhibition compared with AB129 [1]: comparable to AB129; killing of adenocarcinoma cells in culture (adenocarcinoma cells): kill adenocarcinoma cells in culture
Cc1cc(O)cc(-c2cn(C(C)C)c3ncnc(Cl)c23)c1 [SD6, 3-(4-chloro-7-isopropyl-7H-pyrrolo[2,3-d]pyrimidin-5-yl)-5-methyl-phenol]	–	–	6.71	–
CC1(C)[C@@H](O[C@H]2O[C@H](C(=O)O)[C@@H](O)[C@H](O)[C@H]2O[C@@H]2O[C@H](C(=O)O)[C@@H](O)[C@H](O)[C@H]2O)CC[C@]2(C)[C@H]3C(=O)C=C4[C@@H]5C[C@@](C)(C(=O)O)CC[C@]5(C)CC[C@@]4(C)[C@]3(C)CC[C@@H]12 [glycyrrhizic acid]	–	–	–	pIC50 (11β-HSD1): 7.40
Cc1ccc(-c2nn(C(C)(C)C)c3ncnc(N)c23)cc1 [PP1, reference compound]	–	–	–	pIC50 [1]: < 4.70; inhibition of CBR1 ([1]; at a concentration as high as 16 μM): did not inhibit; inhibition of CBR1 ([1]; in vitro assay, CBR1 expressed in bacteria): does not inhibit; A549 cells in G2/M phase [3]: approximately 5.6%; cell killing in human lung cancer cell line A549 [2]: not
CC(C)(C)n1nc(Cc2ccccc2O)c2c(N)ncnc21 [RB04]	< 4.70	6.92	–	–
